Reference: US20060128810A1, “Remedies for allergic diseases” (Kyoto University, priority 2002, published 2006)

Experiments:
[1] = tested on: OVA-sensitized mouse asthma model; experiment: OVA-sensitized mouse asthma model, number of inflammatory cells in BALF; format: in vivo, mouse (C57/BL6); conditions: subcutaneous; for neutrophil number in BALF: FIG. 2
Source text: An asthma reaction was induced using a wild-type mouse (C57/BL6) that had previously been sensitized with an antigen of OVA twice (day 0 and day 12) by inhalation sensitization at intervals of four days a total of three times (day 22, day 26, and day 30). Subsequently, the change in the number of inflammatory cells in BALF that was an indicator of an allergic reaction was examined.
That is, a compound having an agonistic activity to EP3 receptor is effective in therapy of an allergic disease such as asthma, and a selective agonistic compound to EP3 receptor can be expected to induce a more remarkable therapeutic effect.

[2] = tested on: extracted lung of a sensitized wild-type mouse; experiment: Histamine and LT release from extracted lung of sensitized wild-type mouse by in vitro antigen stimulation
Procedure: The inventors of the present invention have studied on involvement of EP3 receptor in allergy reactions using the method already reported in a literature (Science, 287, 2013-(2000)). Specifically, the asthma condition was induced by inhalation of ovalbumin (hereinafter, abbreviated as OVA) in an EP3 receptor-deficient mouse, and the lung condition was analyzed. […] In addition, the suppression of the amount of histamine released from the sensitized lung by the agonist for the EP3 receptor causes only improvement of the portion enhanced by indomethacin. […] The inventors of the present invention have analyzed an EP3 (one of the PGE2 receptor subtypes) gene-deficient mouse and have already elucidated that EP3 is involved in crisis of an allergic reaction from the results of significant increase in the amount of infiltrated eosinophilics in a bronchoalveolar lavage fluid (hereinafter, abbreviated as BALF), and more significant increase in the number of infiltrated cells into a lung tissue and in the amount of Th2 cytokine in the mouse. Furthermore, they have found out that the amount of a chemical mediator that is released by in vitro antigenic stimulation of the lung of a sensitized wild-type mouse is increased by indomethacin which is a PGH-producing enzyme (cyclooxygenase) inhibitor and is suppressed by an agonist for EP3 receptor. […]

[3] = 10 μg/kg twice a day, day 22 to day 33, FIG. 1
[4] = 10 μg/kg twice a day, day 22 to day 33

| SMILES | eosinophil number in BALF [1, 3] | neutrophil number in BALF [1, 4] | eosinophil number in BALF ([1]; 200 μg/kg twice a day, FIG. 3) | amount of LT released from the extracted lung [2] | amount of histamine released from the extracted lung [2] |
| --- | --- | --- | --- | --- | --- |
| CCCCC[C@@H](/C=C/[C@H]1[C@H](OC)CC(=O)[C@@H]1C/C=C\CCCC(=O)O)OC [compound (I-1), 11α,15α-dimethoxy-9-oxoprosta-5Z,13E-dienoic acid] | decreased significantly | decreased significantly | – | – | – |
| CCCCC(C)(C)[C@H](O)/C=C/[C@H]1[C@H](O)CC(=O)[C@@H]1C/C=C\CCCC(=O)O [dmPGE2, 16,16-dimethyl PGE2] | no significant effect | no significant effect | significant effect | – | – |
| COc1ccc2c(c1)c(CC(=O)O)c(C)n2C(=O)c1ccc(Cl)cc1 [indomethacin] | – | – | – | increase | increase |
